Reference: US20050020658A1, “Selective cyclooxygenase-2 inhibitor patch” (priority 2002, published 2005)

What was measured:
[1] = Solubility of celecoxib and valdecoxib in various solvents at room temperature; format: physicochemical
Experimental: In order to identify candidate solvent systems for patch formulations of selective COX-2 inhibitory drugs of low water solubility, various solvents were tested for solubility of celecoxib and valdecoxib at room temperature.

[2] = Skin flux of 10 mM drug solutions in NMP, Franz diffusion cell; format: in vitro ADME, rat; conditions: 10 mM solution in NMP, 1 ml; receptor 10% NMP in phosphate buffer saline pH 7.4; 32° C.; 3 replicates
Experimental: (§1) A 15 mm disk of the membrane was placed on a diffusion cell filled with the receptor fluid and the diffusion cell was maintained at 32° C. A 10 mM solution of each drug in NMP was placed in an amount of 1 ml on the membrane. […] The test was conducted in 3 replicates.

[3] = In vitro skin permeation of 1% drug solutions, Franz diffusion cell; format: in vitro ADME, rat
Experimental: A 15 mm disk of the membrane was placed on a diffusion cell filled with the receptor fluid and the diffusion cell was maintained at 32° C. A 10 mM solution of each drug in NMP was placed in an amount of 1 ml on the membrane. The amount of drug that had permeated through the membrane by various times in an 8-10 hour period was determined by HPLC analysis of the receptor fluid. The test was conducted in 3 replicates. […] The test solutions in this example comprised celecoxib or valdecoxib at a concentration of 1% weight/volume in various solvents. The test was conducted in 3 replicates. […] The test solutions in this example comprised celecoxib or valdecoxib at a concentration of 1% weight/volume in NMP, with or without oleic acid at 1% weight/volume. The test was conducted in 3 replicates.

[4] = In vitro skin permeation of poultice, tape and gel formulations, Franz diffusion cell; format: in vitro ADME, rat
Experimental: as §1, with “replicates. […] The test solutions in this example comprised celecoxib or valdecoxib at a concentration of 1% weight/volume in various solvents. The test was conducted in 3 replicates. A 25 mm disk was punched from each poultice and placed on a Franz diffusion cell. […]” for “replicates.”

[5] = Solubility of valdecoxib in NMP/PEG 400 mixtures at room temperature; format: physicochemical
Experimental: Solubility was determined by preparing a saturated solution of valdecoxib in the test solvent system at 80° C. and cooling this solution for 24 hours at room temperature.

[6] = in 1,3-butylene glycol, room temperature
[7] = in crotamiton, room temperature
[8] = in diethyl sebacate, room temperature
[9] = in dipropylene glycol, room temperature
[10] = in propylene glycol, room temperature
[11] = 0.5% poultice (crotamiton/PEG 400 solvents), 25 mm disk

Compound | solubility [1, 6] [mg/g] | solubility ([1]; in DIA, room temperature) [mg/g] | solubility ([1]; in NMP, room temperature) [mg/g] | solubility ([1]; in PEG 400, room temperature) [mg/g] | solubility [1, 7] [mg/g] | solubility [1, 8] [mg/g] | solubility [1, 9] [mg/g] | solubility [1, 10] [mg/g] | skin flux [2] [nmol/cm^2 · h] | skin flux ([3]; 1% weight/volume in NMP) [μg/cm^2 · h] | skin flux ([3]; 1% weight/volume in PEG 400) | skin flux ([3]; 1% weight/volume in crotamiton) | skin flux [4, 11] [μg/cm^2 · h] | skin flux ([4]; 1.0% gel (70% ethanol), 200 mg) [μg/cm^2 · h] | other results
Cc1onc(-c2ccccc2)c1-c1ccc(S(N)(=O)=O)cc1 [valdecoxib, 4-[5-methyl-3-phenylisoxazol-4-yl]benzenesulfonamide] | 19 | 20 | 190 | 198 | 165 | 10 | 67 | 30 | 3.3 | 0.51 | not detectable | 0.02 μg/cm^2 · h | 0.009 | 0.115 | solubility ([1]; in glycerol, room temperature): 1 mg/g; time at which amount of drug permeated reached a plateau ([3]; 1% in NMP, FIG. 4): about 4 hours; solubility ([5]; NMP:PEG 400 ratio 0:5, saturated at 80° C., cooled 24 hours at room temperature): 169 mg/g; solubility ([5]; NMP:PEG 400 ratio 5:0): 190 mg/g; solubility ([5]; NMP:PEG 400 ratio 5:1): 149 mg/g; solubility ([5]; NMP:PEG 400 ratio 5:2): 126 mg/g; solubility ([5]; NMP:PEG 400 ratio 5:3): 100 mg/g; solubility ([5]; NMP:PEG 400 ratio 5:4): 73 mg/g; solubility ([5]; NMP:PEG 400 ratio 5:5): 71 mg/g
Cc1ccc(-c2cc(C(F)(F)F)nn2-c2ccc(S(N)(=O)=O)cc2)cc1 [celecoxib, 4-[5-(4-methylphenyl)-3-(trifluoromethyl)-1H-pyrazol-1-yl]benzenesulfonamide] | 20 | 94 | 219 | 340 | 306 | 77 | 44 | 28 | 1.6 | 0.15 | not detectable | not detectable | 0.008 | 0.039 | 
CC(C(=O)O)c1cccc(C(=O)c2ccccc2)c1 (centres unmarked) [ketoprofen] |  |  |  |  |  |  |  |  | 33.4 |  |  |  |  |  | 
